We go through three compounds from patent publication US7045315B2, “Methods for modulating expression of exogenous genes in mammalian systems” (The Salk Institute for Biological Studies, priority 1998, dated 2006).

Common to all, as to assay type: cell-based
In one data set the test system is VgEcR/RXR heterodimer. Nature of the data set: Assay for inducer effectiveness on the ecdysone-inducible expression system (E/GRE4-ΔMTV-Luc reporter, CV-1 cells). The following applies: for ability to activate the expression system in the further presence of an RXR agonist: diacylhydrazine plus LG1000268 vs alone, FIG. 4. On the procedure:
CV-1 cells were maintained in DMEM supplemented with 10% fetal bovine serum. Transfections were performed using the Dotap transfection reagent (Boehringer Mannheim). All candidate inducers were dissolved in either ethanol or DMSO. Muristerone A (MurA) was used as a positive control for activation. All transfections were performed in triplicate.
The E/GRE4-ΔMTV-Luc plasmid is routinely used as a reporter. […] A CMX-β-gal reporter plasmid was included in the transfection as a control for transfection efficiency. Approximately 10 hours after transfection, the media was removed and replaced with fresh media containing varying concentrations of the putative inducers. Cells were exposed to candidate activators for 20–48 hours, then assayed for luciferase and β-galactosidase activity employing standard techniques. Luciferase values were normalized using β-galactosidase activity levels.

Data set [1] concerns RXR and VpEcR heterodimer. Nature of the data set: Transient transfection reporter assay in CV-1 cells, RXR and VpEcR. The following applies: 1 μM muristerone A, FIG. 1A. As to the method:
(§1) CV-1 cells were maintained in DMEM supplemented with 10% Fetal Bovine Serum. Transient transfections were performed using DOTAP transfection reagent (Boehringer-Mannheim). Transfections using β-galactosidase as the reporter were assayed either by Galactolight luminescent assay (Tropix, Bedford, Mass.) or by standard liquid ONPG assay (Sigma, St. Louis, Mo). The values were normalized by co-transfection of CMX-luciferase. Transfections using luciferase as the reporter were assayed by standard techniques using luciferin and ATP. These values were normalized by co-transfection of CMX-β-galactosidase. Hormone treated cells were treated with ethanol, 50 μM Juvenile Hormone III (Sigma), 1 μM muristerone A (Zambon, Bresso, IT), or 1 μM dexamethasone (Sigma) unless otherwise noted.
On the technique in general: In a reporter assay the amount or activity of a reporter protein is the signal.

The test system of data set [2] is GEcR (modified ecdysone receptor). Nature of the data set: Transient transfection reporter assay in CV-1 cells, modified ecdysone receptor GEcR. The settings on record: 1 μM muristerone A vs ethanol; CV-1 cells transfected with CMX-GEcR; FIG. 1A. On the procedure:
as §1
(§2) To maximize the sensitivity of the invention ecdysone inducible system, modifications of the ecdysone receptor were made. The N-terminal transactivation domain of the ecdysone receptor was replaced by the corresponding domain of the glucocorticoid receptor (GR), resulting in the modified ecdysone receptor GEcR (See FIG. 1D). CV-1 cells were transfected with the plasmid CMX-GEcR encoding the modified ecdysone receptor as discussed above. […]

Data set [3] deals with T1, ecdysone receptor (EcR) with USP (Drosophila melanogaster, UniProt P34021).
T1 construct: expressed in transfected cells; host or cells: CV-1 cells
T1 sequence (P34021 1-878): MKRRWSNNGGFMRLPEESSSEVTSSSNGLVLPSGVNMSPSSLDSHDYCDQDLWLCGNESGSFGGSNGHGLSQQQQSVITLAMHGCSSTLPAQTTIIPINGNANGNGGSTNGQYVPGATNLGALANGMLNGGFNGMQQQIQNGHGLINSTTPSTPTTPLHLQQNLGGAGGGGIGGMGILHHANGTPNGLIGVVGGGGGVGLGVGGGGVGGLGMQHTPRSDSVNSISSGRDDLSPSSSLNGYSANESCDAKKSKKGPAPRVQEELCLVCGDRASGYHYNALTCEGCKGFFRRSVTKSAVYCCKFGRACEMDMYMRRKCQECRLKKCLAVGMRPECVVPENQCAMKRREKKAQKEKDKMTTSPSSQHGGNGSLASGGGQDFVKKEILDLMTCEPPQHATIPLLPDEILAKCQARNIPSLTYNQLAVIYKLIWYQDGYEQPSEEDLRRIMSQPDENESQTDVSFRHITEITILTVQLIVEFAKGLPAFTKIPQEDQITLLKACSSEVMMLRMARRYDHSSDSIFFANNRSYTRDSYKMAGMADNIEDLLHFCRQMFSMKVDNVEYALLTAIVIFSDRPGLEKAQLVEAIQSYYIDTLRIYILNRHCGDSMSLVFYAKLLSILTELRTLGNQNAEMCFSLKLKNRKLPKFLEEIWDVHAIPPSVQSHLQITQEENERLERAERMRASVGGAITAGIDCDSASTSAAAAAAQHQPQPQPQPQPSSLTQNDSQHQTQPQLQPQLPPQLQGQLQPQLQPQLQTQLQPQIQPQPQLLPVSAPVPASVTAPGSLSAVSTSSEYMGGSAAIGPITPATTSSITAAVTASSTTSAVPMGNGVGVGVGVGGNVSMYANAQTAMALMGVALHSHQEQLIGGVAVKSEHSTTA
T1 sequence (P20153 1-508 partner): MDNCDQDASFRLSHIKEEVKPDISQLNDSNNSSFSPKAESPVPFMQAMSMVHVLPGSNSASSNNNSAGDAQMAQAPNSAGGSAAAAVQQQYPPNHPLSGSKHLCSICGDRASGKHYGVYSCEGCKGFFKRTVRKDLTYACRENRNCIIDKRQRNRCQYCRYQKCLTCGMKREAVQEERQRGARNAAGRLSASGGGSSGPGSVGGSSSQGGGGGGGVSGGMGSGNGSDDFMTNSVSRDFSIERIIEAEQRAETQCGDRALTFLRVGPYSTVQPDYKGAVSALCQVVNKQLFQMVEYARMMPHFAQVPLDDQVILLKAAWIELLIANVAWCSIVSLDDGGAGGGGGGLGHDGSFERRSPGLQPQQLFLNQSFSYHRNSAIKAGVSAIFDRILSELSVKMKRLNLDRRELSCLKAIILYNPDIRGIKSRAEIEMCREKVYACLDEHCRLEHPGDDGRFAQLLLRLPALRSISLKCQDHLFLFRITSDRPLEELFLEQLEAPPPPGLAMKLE
Nature of the data set: Transient transfection reporter assay in CV-1 cells, ecdysone receptor with USP. The settings on record: 1 μM muristerone A vs ethanol, unmodified ecdysone receptor, FIG. 1A. On the procedure: as §1, §2

Data set [4] deals with T2, ecdysone receptor heterodimer with retinoid X receptor (RXR) (Drosophila melanogaster, UniProt P34021).
T2 construct: expressed in transfected cells; host or cells: CV-1 cells
T2 sequence (P34021 1-878): T1 sequence (P34021 1-878)
T2 sequence (P19793 1-462 partner): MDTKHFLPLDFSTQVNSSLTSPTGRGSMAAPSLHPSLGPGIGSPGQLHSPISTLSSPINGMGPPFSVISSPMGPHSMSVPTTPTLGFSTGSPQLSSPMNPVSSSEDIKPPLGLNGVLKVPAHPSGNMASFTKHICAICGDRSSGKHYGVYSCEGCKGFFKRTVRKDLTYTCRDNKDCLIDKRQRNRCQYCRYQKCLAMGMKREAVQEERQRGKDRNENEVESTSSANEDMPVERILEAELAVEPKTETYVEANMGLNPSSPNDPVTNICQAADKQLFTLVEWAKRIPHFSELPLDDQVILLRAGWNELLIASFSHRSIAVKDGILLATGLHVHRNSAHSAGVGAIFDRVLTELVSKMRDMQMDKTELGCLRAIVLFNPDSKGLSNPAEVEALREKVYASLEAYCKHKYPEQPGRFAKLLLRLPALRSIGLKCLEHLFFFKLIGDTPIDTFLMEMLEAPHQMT
Nature of the data set: Transient transfection reporter assay in CV-1 cells, USP replaced by RXR. The following applies: 1 μM muristerone A, FIG. 1A. As to the method: as §1, §2

As to `CCc1ccc(C(=O)NN(C(=O)c2cc(C)cc(C)c2)C(C)(C)C)cc1` [N′-(3,5-dimethylbenzoyl)-N-(4-ethylbenzoyl)-N′-(tert-butyl) hydrazine], the “ability to activate the expression system in the further presence of an RXR agonist” value with VgEcR/RXR heterodimer was “enhanced ability”.

Take `Cc1cc(C)cc(C(=O)N(NC(=O)c2ccc3c(c2C)OCCO3)C(C)(C)C)c1` [N′-(3,5-dimethylbenzoyl)-N-(2-methyl-3,4-(ethylenedioxy)-benzoyl)-N′-(tert-butyl) hydrazine]: the “ability to activate the expression system in the further presence of an RXR agonist” value in the data set on VgEcR/RXR heterodimer was “enhanced ability”.

For the compound `CC(C)CC[C@@H](O)[C@](C)(O)[C@H]1CC[C@@]2(O)C3=CC(=O)[C@]4(O)C[C@@H](O)[C@@H](O)C[C@]4(C)[C@H]3[C@H](O)C[C@]12C` [muristerone A], the figures for the “fold induction of reporter” value in data set [1] and in data set [4] were 212 fold and 34 fold, respectively. Also, the “muristerone responsiveness (fold induction of reporter)” value was 11 fold in data set [2] and 3 fold in data set [3]. For the same compound, the “activation of the ecdysone-inducible system, combination with RXR ligand” value in the data set with VgEcR/RXR heterodimer (MurA concentration varied, LG1000268 constant 100 nM, FIG. 3) is “dramatically enhances the activation”. Moreover, in the data set on VgEcR/RXR heterodimer (ligand alone over several concentrations, luciferase normalized to β-galactosidase, FIG. 3), the “activation of the ecdysone-inducible system, ligand alone” value is “effective inducer”.
